How the values were obtained:
[1] = Franz diffusion cell skin permeation testing of diclofenac formulations; format: in vitro ADME, human; conditions: Example 7, as permeation enhancer in 2% diclofenac formulation
Experimental: Franz diffusion cell experiments were used to analyze flux rates of diclofenac from compositions taught under the present disclosure across human skin. See, e.g., Bartosova and Bajgar, Transdermal Drug Delivery In Vitro Using Diffusion Cells, Curr. Med. Chem. 2012, 19: 4671-4677.
In the examples described herein, Franz diffusion cells (“FDC”s) with a 3.3 mL receptor well volume were used, with either porcine skin or human cadaver skin. For human cadaver skin, split thickness human cadaver skin (0.015″-0.018″) was obtained from AlloSource (Centennial, Colo.) or Skin Bank New York Firefighters (New York, N.Y.). The skin tissue was dermatomed by the tissue bank to a thickness of some 250 μm and shipped frozen on dry ice. […]
The integrity and quality of each skin piece was tested prior to application of the test formulations through measurement of the transdermal flux of tritiated water or of the transepidermal electrical resistance (“TEER”) (skin integrity was usually not tested on porcine skin pieces). […] An alternating current (“AC”) signal, 100 mV root mean square (“RMS”) at 100 Hz, was applied across the skin using a waveform generator and the impedance is then measured with a digital multimeter and the results recorded in kΩ. Any FDC showing anomalously low impedance (nominally <2 kΩ) was discarded and the FDCs were ranked according to the magnitudes of the measured impedance readings. […]

[2] = printed as negative log P; cited from earlier work

Row | Compound | effect on penetration of diclofenac [1] | log P [2]
1 | CCCCCCCC/C=C\CCCCCCCC(=O)O [Oleic Acid, cis-9-octadecenoic acid] | enhance penetration of diclofenac | 
2 | CCCCCCCC/C=C\CCCCCCCCO [Oleyl Alcohol, oleyl alcohol] | enhance penetration of diclofenac | 
3 | CCOCCOCCO [Transcutol, 2-(2-Ethoxyethoxy)ethanol] |  | ~-0.5

Reference: US11872199B2, “Topical formulations of cyclooxygenase inhibitors and their use” (SMARTECH TOPICAL, INC., priority 2019, dated 2024)
